According to US12370235B2, “Synthetic, non-natural antimicrobial peptides inspired by Staphylococcus auricularis delta toxin” (University of Saskatchewan, priority 2021, dated 2025):
Ends that are not written are not given here.

Columns and labels:
[1] = tested on: S. aureus ATCC 33592 (MRSA SCCmec type III); test: MIC, broth dilution; format: cell-based, Staphylococcus aureus; settings: Table 5; STIP3 variants, highest concentration 100 μg/mL
Summary of the method: (§1)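 Peptides of 95% purity tested as 2-fold dilution series against bacteria diluted to OD 6×10^−4 in cation-adjusted Mueller Hinton broth. Standing cultures incubated overnight at 37° C; MIC is the lowest concentration with no visible growth.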

[2] = tested on: S. aureus ATCC 29213; test: MIC, broth dilution; format: cell-based, Staphylococcus aureus; settings: Table 5; STIP3 variants, highest concentration 100 μg/mL
Summary of the method: as §1

[3] = tested on: S. aureus / MRSA (ATCC MP-2 panel); format: cell-based, Staphylococcus aureus
Method: In order to begin to characterize STIP3-1 and potential sites amenable to modification, an alanine scanning experiment was performed. A total of 16 peptides with single alanine substitutions were assessed to inform on the importance of individual residues to antimicrobial activity. […] Next a series of thirty STIP3-1 variants were designed, guided by the aforementioned alanine scan and a previous report that the central α-helical core of the S. aureus δ-toxin could be converted into AMP through the inclusion of additional lysine residues^39. The collection included ten members with single substitutions relative to STIP3-1 and others that incorporated a number of changes that were designed to increase overall and local cationic charge as well as hydrophobic character (Table 5). Each of the STIPs was screened, including STIP3-1 to STIP-31, for antibiotic activity against a methicillin-sensitive S. aureus test organism and a panel of 7 MRSA strains defined by distinct SCCmec genotypes (FIG. 2; ATCC MP-2).
Determination of minimum inhibitory concentrations. The MICs were measured for bioactive peptides identified from the initial screen. For bacterial studies, cation-adjusted Mueller Hinton (MH) broth was used as the growth medium whereas YPD was used for C. albicans. Bacterial cultures were diluted to a OD value of 6×10^−4 in MH broth and a 180 μl volume was mixed with 20 μl of peptide arrayed as 2-fold dilution series in a 96-well plate. For the positive control, 20 μl of sterile water was used. Plates were incubated as standing cultures overnight at 37° C. The lowest peptide concentration that resulted no observed microbial growth after an overnight treatment was defined as the MIC.

[4] = Circular dichroism spectroscopy; format: physicochemical; settings: CD, 50% (v/v) TFE
Text: The δ-toxins and the PSMs are characterized as α-helical peptides that form amyloid fibers^48. Although the propensity of individual peptides to form amyloids is correlated to their cytotoxicity^49, the amyloid form is not directly implicated in cell membrane disruption^50. […] CD spectroscopy was used to investigate the secondary structure of a subset of peptides within the collection (FIG. 4A, Table 5). The STIP variants adopted α-helical forms in 50% (v/v) trifluoroethanol (TFE), though unlike the full-length S. auricularis δ-toxin, they were unstructured in water. […] Specifically, peptides characterized by the greatest and least α-helical content in TFE had MICs above the highest tested threshold.
Circular dichroism spectroscopy. Peptides were dissolved in water at concentrations between 0.3 and 0.5 mg/mL. CD spectra were recorded on an Applied Photophysics Chirascan Plus CD spectrophotometer at room temperature in a 0.1 cm path-length quartz cuvette. Spectra were recorded from 180 to 260 nm.

TVGGLVKWILKTVKKFA-NH2 [STIP3-29-D3]
MIC S. aureus ATCC 33592 (III) [1]: > (no inhibition was observed at the highest concentration of peptide tested: 100 μg/mL for the STIP3 variants)
MIC S. aureus ATCC 29213 [2]: > (no inhibition was observed at the highest concentration of peptide tested: 100 μg/mL for the STIP3 variants)
fold increase of MIC relative to STIP3-29 [3]: greater than 16 fold
α helicity (%) [4]: 32%
